Source: patent US20060270694A1, “JAK kinase inhibitors and their uses” (Rigel Pharmaceuticals, Inc., priority 2005, published 2006)

What follows are compounds tested on JAK kinase (JAK1 and JAK3) (assay: IL-4 activation assay: CD23 upregulation in IL-4 stimulated Ramos B-cells, FACS). Details: TABLE 1; IC50 CHMC degranulation / IC50 IL-4 Ramos CD23; minimum ratio, calculated using Syk IC50 of 50 μM (upper limit of assay).
Assay type: cell-based, human
Protocol: The selectivity of the compounds illustrated in TABLES 1 and 2 for JAK kinases as compared to Syk kinase was confirmed in cellular assays designed to test for JAK and Syk inhibition. Briefly, JAK inhibition was tested in human Ramos B-cells activated with IL-4. Twenty to 24 hours post stimulation, the cells are stained for upregulation of CD23 and analyzed by FACS. Stimulation of the B-cells with IL-4 leads to the activation of the JAK/STAT pathway through phosphorylation of the JAK kinase JAK1 and JAK3, which in turn phosphorylate and activate transcription of factor […].
For the assay, human Ramos B-cells (ATCC, Catalog No. CRL-1596) are cultured in RPMI 1640 medium (Cellgro, Catalog No. 10-040-CM) containing 10% fetal bovine serum (JRH, Catalog No. 12106-500M) according to the propagation protocol supplied with the cells, and maintained at a density of approximately 3.5×10^5 cells/ml. The day before the assay, the cells are diluted to 3.5×10^5 cells/ml to insure they are in the logorithmic growth phase. The cells are spun down, and suspended in RPMI 1640 medium containing 5% fetal bovine serum to a density of 3.5×10^4 cells/ml and aliquots dispensed into a 96-well tissue culture plate. Cells are incubated with test compound (dissolved in DMSO) or DMSO (control) for 1 hr at 37° C. and then stimulated with IL-4 (Pepotech, Catalog No. 200-04) for 20-24 hours (final concentration is 50 Units/ml). Cells are then spun down, stained with anti-CD23-PE antibody (BD Pharmigen, Catalog No.555711) and analyzed by FACS.

| IC50 Ratio (Syk/JAK) | SMILES |
| --- | --- |
| 24 | COc1ccc(Nc2ccnc(Nc3ccc(OC)c(-c4ccccc4)c3)n2)cc1-c1ccccc1 [Cmpd 15] |
| 36 | Oc1cccc(Nc2ncc(F)c(Nc3cccc(-c4nnc(-c5ccccc5)o4)c3)n2)c1 [Cmpd 12] |
| 12 | CCN1CCN(c2ccc(Nc3ncc(F)c(NC4CC(C)(C)N(C)C(C)(C)C4)n3)cn2)CC1 [Cmpd 23] |
| 10 | C[C@H]1Oc2ccc(Nc3nc(Nc4ccc(C(=O)NCC(=O)O)cc4)ncc3F)cc2NC1=O [Cmpd 26] |
| 20 | O=C(O)C1CCC(Nc2nc(Nc3ccc4c(c3)OCCO4)ncc2F)CC1 (stereo not drawn) [Cmpd 18] |

Same assay, conditions: TABLE 2; IC50 CHMC degranulation (tryptase) / IC50 IL-4 Ramos CD23

| SMILES | IC50 Ratio (Syk/JAK) |
| --- | --- |
| Cc1cc(Nc2nc(Nc3ccc(C(N)=O)cc3)ncc2F)ccc1N1CCN(C)CC1 [Cmpd 28] | 146 |
| NCc1ccc(Nc2ncc(F)c(Nc3ccc(CN)cc3)n2)cc1 [Cmpd 32] | 65 |
| O=[N+]([O-])c1cc(Nc2ccnc(Nc3ccc(Cl)c([N+](=O)[O-])c3)n2)ccc1Cl [Cmpd 62] | 19 |
| CN1CCN(c2ccc(Nc3ncc(F)c(Nc4cc(C5CC5)n[nH]4)n3)cc2Cl)CC1 [Cmpd 30] | 85 |

Results, then the compound that gave them:

| IC50 Ratio (Syk/JAK) | SMILES |
| --- | --- |
| 20 | COC(=O)c1ccc(Nc2ncc(F)c(Nc3ccc(C(=O)OC)cc3)n2)cc1 [Cmpd 61] |
| 42 | C[C@@H]1Oc2ccc(Nc3nc(Nc4ccc(CN)cc4)ncc3F)cc2NC1=O [Cmpd 37] |
| 28 | CCN(CC)CCNC(=O)c1ccc(Nc2ncc(F)c(Nc3ccc(Cl)c(OC)c3)n2)cc1 [Cmpd 48] |
| 21 | CN1CCN(C(=O)CNc2cccc(Nc3ncc(F)c(Nc4cccc(NCCO)c4)n3)c2)CC1 [Cmpd 56] |
| 23 | CNC(=O)c1cc(Nc2ncc(F)c(Nc3ccc(OC)c(Cl)c3)n2)ccc1N1CCN(C)CC1 [Cmpd 55] |
| 15 | CNC(=O)CNC(=O)c1ccc(Nc2ncc(F)c(Nc3ccc4c(c3)NC(=O)C(C)(C)O4)n2)cc1 [Cmpd 70] |
| 10 | COc1ccc(Nc2nc(Nc3ccc(C(N)=O)c(Cl)c3)ncc2F)cc1Cl [Cmpd 83] |
| 19 | CS(=O)(=O)Nc1ccc(Nc2ncc(F)c(Nc3ccc(NS(C)(=O)=O)cc3)n2)cc1 [Cmpd 64] |
| 16 | Cc1cc(Nc2ncc(F)c(NC3C=C[C@@H](C(N)=O)C3)n2)ccc1N1CCN(C)CC1 (stereo partly drawn) [Cmpd 69] |
